Values of other authors, collected in patent publication US5585357A, “Heteroaryloxymethyl ketones as interleukin-1βconverting enzyme inhibitors” (Sanofi Winthrop Inc., priority 1996, dated 1996).

Columns and labels:
[1] = rat, oral administration
[2] = small open-label human trial, subcutaneous
[3] = tested on: chronic myelogenous leukemia cells; conditions: cells removed from leukemia patients
[4] = animal model of ulcerative colitis
[5] = PG-APS model of arthritis in rats

Compound | inflammation and pyrexia [1] | efficacy in Rheumatoid Arthritis [2] | colony growth [3] | tissue necrosis and number of inflammatory cells in the colon [4] | joint swelling [5]
CCOC(=O)C[C@H](NC(=O)[C@H](C)NC(=O)[C@@H](NC(=O)OCc1ccccc1)C(C)C)C(=O)COC(=O)c1c(Cl)cccc1Cl [SDZ 224-015] | Reduction of inflammation and pyrexia | – | – | – | –
IL-1ra: naturally occurring IL-1β receptor antagonist | – | shows efficacy | inhibit colony growth | reduced tissue necrosis and the number of inflammatory cells in the colon | supresses joint swelling
